Test results published in the NIST ThermoML archive (doi:10.1016/j.jct.2006.10.017).

Experiments:
[1] = xn = mol fraction of the nth substance listed; conditions: 101 kPa, Liquid
[2] = refractive index (Na D-line) (dimensionless); xn = mol fraction of the nth substance listed; conditions: 101 kPa, Liquid
[3] = 101 kPa, Liquid
[4] = refractive index (Na D-line) (dimensionless); conditions: 101.33 kPa, Liquid

CCCCCCCC[n+]1ccn(C)c1.F[P-](F)(F)(F)(F)F [1-octyl-3-methylimidazolium hexafluorophosphate] + CCO
Conditions	mass density, 293.15 K [kg/m3]	mass density, 298.15 K [kg/m3]	mass density, 303.15 K [kg/m3]	refractive index, 293.15 K	refractive index, 298.15 K	refractive index, 303.15 K	speed of sound, 293.15 K [m/s]	speed of sound, 298.15 K [m/s]	speed of sound, 303.15 K [m/s]
[1], x1 = 0.0447	873.9	869.7	865.4	–	–	–	1180	1165	1151
[1], x1 = 0.0982	946.5	942.3	938.1	–	–	–	1206	1193	1180
[1], x1 = 0.1976	1035.8	1031.7	1027.5	–	–	–	1257	1245	1233
[1], x1 = 0.2897	1089.5	1085.3	1081.1	–	–	–	1295	1283	1271
[1], x1 = 0.3897	1130.4	1126.3	1122.2	–	–	–	1327	1315	1303
[1], x1 = 0.499	1162.8	1158.8	1154.8	–	–	–	1352	1340	1328
[1], x1 = 0.5896	1183.2	1179.3	1175.3	–	–	–	1369	1357	1344
[1], x1 = 0.708	1204.3	1200.4	1196.5	–	–	–	1386	1373	1360
[1], x1 = 0.8037	1217.9	1214	1210.2	–	–	–	1398	1385	1372
[1], x1 = 0.904	1229.9	1226	1222.2	–	–	–	1411	1397	1383
[1], x1 = 0.9502	1234.7	1230.9	1227.1	–	–	–	1416	1401	1387
[1], x1 = 1	1239.6	1235.7	1231.9	–	–	–	1424	1408	1393
[2], x1 = 0.0447	–	–	–	1.37484	1.37299	1.37124	–	–	–
[2], x1 = 0.0982	–	–	–	1.38484	1.38315	1.38286	–	–	–
[2], x1 = 0.1976	–	–	–	1.3975	1.3959	1.39478	–	–	–
[2], x1 = 0.2897	–	–	–	1.40449	1.40291	1.40181	–	–	–
[2], x1 = 0.3897	–	–	–	1.41009	1.40855	1.40752	–	–	–
[2], x1 = 0.499	–	–	–	1.41448	1.41289	1.41174	–	–	–
[2], x1 = 0.5896	–	–	–	1.41703	1.41553	1.41412	–	–	–
[2], x1 = 0.708	–	–	–	1.41965	1.41817	1.41682	–	–	–
[2], x1 = 0.8037	–	–	–	1.4215	1.42004	1.41858	–	–	–
[2], x1 = 0.904	–	–	–	1.42304	1.42165	1.42026	–	–	–
[2], x1 = 0.9502	–	–	–	1.42375	1.42231	1.42112	–	–	–
[2], x1 = 1	–	–	–	1.4244	1.42302	1.42165	–	–	–

CCO [ethanol]
Conditions	mass density, 293.15 K [kg/m3]	mass density, 298.15 K [kg/m3]	mass density, 303.15 K [kg/m3]	refractive index, 293.15 K	refractive index, 298.15 K	refractive index, 303.15 K	speed of sound, 293.15 K [m/s]	speed of sound, 298.15 K [m/s]	speed of sound, 303.15 K [m/s]
[3]	789.3	785.1	780.7	–	–	–	1160	1143	1127
[4]	–	–	–	1.36138	1.35929	1.35725	–	–	–

CCO [ethanol] + CCCCCCCC[n+]1ccn(C)c1.F[P-](F)(F)(F)(F)F
x2 = 0
Conditions	mass density, 293.15 K [kg/m3]	mass density, 298.15 K [kg/m3]	mass density, 303.15 K [kg/m3]	refractive index, 293.15 K	refractive index, 298.15 K	refractive index, 303.15 K	speed of sound, 293.15 K [m/s]	speed of sound, 298.15 K [m/s]	speed of sound, 303.15 K [m/s]
[1]	789.3	785.1	780.7	–	–	–	1160	1143	1127
[2]	–	–	–	1.36138	1.35929	1.35725	–	–	–

CCO [ethanol] + CCCCCCn1cc[n+](C)c1.F[P-](F)(F)(F)(F)F
x2 = 0
Conditions	mass density, 293.15 K [kg/m3]	mass density, 298.15 K [kg/m3]	mass density, 303.15 K [kg/m3]	refractive index, 293.15 K	refractive index, 298.15 K	refractive index, 303.15 K	speed of sound, 293.15 K [m/s]	speed of sound, 298.15 K [m/s]	speed of sound, 303.15 K [m/s]
[1]	789.3	785.1	780.7	–	–	–	1160	1143	1127
[2]	–	–	–	1.36138	1.35929	1.35725	–	–	–

CCO [ethanol] + CCCCn1cc[n+](C)c1.COS(=O)(=O)[O-]
x2 = 0
Conditions	mass density, 293.15 K [kg/m3]	mass density, 298.15 K [kg/m3]	mass density, 303.15 K [kg/m3]	refractive index, 293.15 K	refractive index, 298.15 K	refractive index, 303.15 K	speed of sound, 293.15 K [m/s]	speed of sound, 298.15 K [m/s]	speed of sound, 303.15 K [m/s]
[1]	789.3	785.1	780.7	–	–	–	1160	1143	1127
[2]	–	–	–	1.36138	1.35929	1.35725	–	–	–

CCO [ethanol] + CCCCn1cc[n+](C)c1.F[P-](F)(F)(F)(F)F
x2 = 0
Conditions	mass density, 293.15 K [kg/m3]	mass density, 298.15 K [kg/m3]	mass density, 303.15 K [kg/m3]	refractive index, 293.15 K	refractive index, 298.15 K	refractive index, 303.15 K	speed of sound, 293.15 K [m/s]	speed of sound, 298.15 K [m/s]	speed of sound, 303.15 K [m/s]
[1]	789.3	785.1	780.7	–	–	–	1160	1143	1127
[2]	–	–	–	1.36138	1.35929	1.35725	–	–	–

CCO [ethanol] + COS(=O)(=O)[O-].Cn1cc[n+](C)c1
x2 = 0
Conditions	mass density, 293.15 K [kg/m3]	mass density, 298.15 K [kg/m3]	mass density, 303.15 K [kg/m3]	refractive index, 293.15 K	refractive index, 298.15 K	refractive index, 303.15 K	speed of sound, 293.15 K [m/s]	speed of sound, 298.15 K [m/s]	speed of sound, 303.15 K [m/s]
[1]	789.3	785.1	780.7	–	–	–	1160	1143	1127
[2]	–	–	–	1.36138	1.35929	1.35725	–	–	–
